Results: ChEMBL document CHEMBL4680060, “Polybasic peptide-levofloxacin conjugates potentiate fluoroquinolones and other classes of antibiotics against multidrug-resistant Gram-negative bacteria” (Medchemcomm, 2019)
In brackets after ≈: the same amount, converted by molar mass. Activity calls are given as the source filed them. The rule behind the calls is not given here.

Experiments:
Escherichia coli [1] = assay: Synergistic antibacterial activity against Escherichia coli 107115 in presence of levofloxacin by Checkerboard assay; type: functional, organism-based
Pseudomonas aeruginosa [2] = assay: Potentiation of levofloxacin-induced antibacterial activity against wild type Pseudomonas aeruginosa PAO1 assessed as levofloxacin MIC measured after 18 hrs by CLSI protocol based microbroth dilution method (reference value: 0.5 ug/ml); type: functional
Pseudomonas aeruginosa [3] = assay: Synergistic antibacterial activity against multidrug resistant Pseudomonas aeruginosa PA101885 in presence of moxifloxacin by Checkerboard assay; type: functional, organism-based
Pseudomonas aeruginosa [4] = assay: Potentiation of linezolid-induced antibacterial activity against wild type Pseudomonas aeruginosa PAO1 measured after 18 hrs by CLSI protocol based microbroth dilution method; type: functional, organism-based
Escherichia coli [5] = assay: Additive antibacterial activity against Escherichia coli 94474 in presence of ciprofloxacin by Checkerboard assay; type: functional, organism-based
Pseudomonas aeruginosa [6] = assay: Potentiation of ciprofloxacin-induced antibacterial activity against wild type Pseudomonas aeruginosa PAO1 assessed as fold reduction in ciprofloxacin MIC measured after 18 hrs by CLSI protocol based microbroth dilution method relative to ciprofloxacin MIC; type: functional
Pseudomonas aeruginosa [7] = assay: Potentiation of fosfomycin-induced antibacterial activity against wild type Pseudomonas aeruginosa PAO1 measured after 18 hrs by CLSI protocol based microbroth dilution method; type: functional, organism-based
Escherichia coli [8] = assay: Additive antibacterial activity against Escherichia coli ATCC 25922 in presence of ciprofloxacin by Checkerboard assay; type: functional, organism-based
Pseudomonas aeruginosa [9] = assay: Potentiation of clindamycin-induced antibacterial activity against wild type Pseudomonas aeruginosa PAO1 measured after 18 hrs by CLSI protocol based microbroth dilution method; type: functional, organism-based
Pseudomonas aeruginosa [10] = assay: Additive antibacterial activity against MexAB-OprM, MexCD-OprJ, MexEF-OprN, MexJK and MexXY efflux pumps deficient Pseudomonas aeruginosa PAO750 in presence of levofloxacin by Checkerboard assay; type: functional, organism-based
Acinetobacter baumannii [11] = assay: Synergistic antibacterial activity against multidrug resistant Acinetobacter baumannii AB027 assessed as fractional inhibitory concentration index in presence of moxifloxacin by Checkerboard assay; type: functional
Pseudomonas aeruginosa [12] = assay: Synergistic antibacterial activity against multidrug resistant Pseudomonas aeruginosa PA101885 in presence of levofloxacin by Checkerboard assay; type: functional, organism-based
Pseudomonas aeruginosa [13] = assay: Antibacterial activity against Pseudomonas aeruginosa ATCC 27853 assessed as inhibition of visible growth incubated for 18 hrs by CLSI protocol based microbroth dilution method; type: functional
Escherichia coli [14] = assay: Synergistic antibacterial activity against Escherichia coli 94474 in presence of levofloxacin by Checkerboard assay; type: functional, organism-based
Escherichia coli [15] = assay: Synergistic antibacterial activity against Escherichia coli 94474 in presence of moxifloxacin by Checkerboard assay; type: functional, organism-based
Pseudomonas aeruginosa [16] = assay: Synergistic antibacterial activity against wild type Pseudomonas aeruginosa PAO1 in presence of levofloxacin by Checkerboard assay; type: functional, organism-based
Escherichia coli [17] = assay: Synergistic antibacterial activity against Escherichia coli 94393 in presence of levofloxacin by Checkerboard assay; type: functional, organism-based
Pseudomonas aeruginosa [18] = assay: Synergistic antibacterial activity against wild type Pseudomonas aeruginosa PAO1 assessed as fractional inhibitory concentration index in presence of moxifloxacin by Checkerboard assay; type: functional
Staphylococcus aureus [19] = assay: Antibacterial activity against methicillin-resistant Staphylococcus aureus ATCC 33592 assessed as inhibition of visible growth incubated for 18 hrs by CLSI protocol based microbroth dilution method; type: functional
Escherichia coli [20] = assay: Additive antibacterial activity against Escherichia coli 107115 in presence of ciprofloxacin by Checkerboard assay; type: functional, organism-based
Pseudomonas aeruginosa [21] = assay: Potentiation of novobiocin-induced antibacterial activity against wild type Pseudomonas aeruginosa PAO1 measured after 18 hrs by CLSI protocol based microbroth dilution method; type: functional, organism-based
Pseudomonas aeruginosa [22] = assay: Synergistic antibacterial activity against multidrug resistant Pseudomonas aeruginosa PA259 in presence of levofloxacin by Checkerboard assay; type: functional, organism-based
Pseudomonas aeruginosa [23] = assay: Synergistic antibacterial activity against wild type Pseudomonas aeruginosa PAO1 in presence of moxifloxacin by Checkerboard assay; type: functional, organism-based
Staphylococcus aureus [24] = assay: Antibacterial activity against methicillin-resistant Staphylococcus aureus clinical isolate CAN-ICU 61589 assessed as inhibition of visible growth incubated for 18 hrs by CLSI protocol based microbroth dilution method; type: functional
Pseudomonas aeruginosa [25] = assay: Potentiation of trimethoprim-induced antibacterial activity against wild type Pseudomonas aeruginosa PAO1 measured after 18 hrs by CLSI protocol based microbroth dilution method; type: functional, organism-based
[26] = Hemolytic activity in pig erythrocyte at 512 ug/ml incubated for 1 hr by microplate reader assay relative to control; type: ADME, cell-based, Sus scrofa; conditions: pig erythrocytes, at 512 µg/mL, read-out: Activity
Pseudomonas aeruginosa [27] = assay: Synergistic antibacterial activity against multidrug resistant Pseudomonas aeruginosa PA100036 in presence of levofloxacin by Checkerboard assay; type: functional, organism-based
Pseudomonas aeruginosa [28] = assay: Potentiation of moxifloxacin-induced antibacterial activity against wild type Pseudomonas aeruginosa PAO1 assessed as […] measured after 18 hrs by CLSI protocol based microbroth dilution method relative to moxifloxacin MIC; type: functional
Pseudomonas aeruginosa [29] = assay: Potentiation of moxifloxacin-induced antibacterial activity against wild type Pseudomonas aeruginosa PAO1 assessed as moxifloxacin MIC measured after 18 hrs by CLSI protocol based microbroth dilution method (reference value: 1 ug/ml); type: functional
Enterobacter cloacae = assay: Antibacterial activity against Enterobacter cloacae 117029 assessed as inhibition of visible growth incubated for 18 hrs by CLSI protocol based microbroth dilution method; type: functional
[30] = tested on: Stenotrophomonas maltophilia; assay: Antibacterial activity against Stenotrophomonas maltophilia clinical isolate CAN-ICU 62584 assessed as inhibition of visible growth incubated for 18 hrs by CLSI protocol based microbroth dilution method; type: functional
Enterococcus faecalis = assay: Antibacterial activity against Enterococcus faecalis ATCC 29212 assessed as inhibition of visible growth incubated for 18 hrs by CLSI protocol based microbroth dilution method; type: functional
Klebsiella pneumoniae [31] = assay: Antibacterial activity against Klebsiella pneumoniae 116381 assessed as inhibition of visible growth incubated for 18 hrs by CLSI protocol based microbroth dilution method; type: functional
Acinetobacter baumannii [32] = assay: Synergistic antibacterial activity against multidrug resistant Acinetobacter baumannii AB027 assessed as fractional inhibitory concentration index in presence of levofloxacin by Checkerboard assay; type: functional
Pseudomonas aeruginosa [33] = assay: Synergistic antibacterial activity against wild type Pseudomonas aeruginosa PAO1 assessed as fractional inhibitory concentration index in presence of ciprofloxacin by Checkerboard assay; type: functional
Klebsiella pneumoniae [34] = assay: Synergistic antibacterial activity against Klebsiella pneumoniae 116381 in presence of moxifloxacin by Checkerboard assay; type: functional, organism-based
Pseudomonas aeruginosa [35] = assay: Additive antibacterial activity against MexAB-OprM efflux pump deficient Pseudomonas aeruginosa PAO200 in presence of moxifloxacin by Checkerboard assay; type: functional, organism-based

For `C[C@H]1COc2c(N3CCN(C)CC3)c(F)cc3c(=O)c(C(=O)NCCCCCCCCCCCC(=O)N[C@@H](CCN)C(=O)N[C@@H](CCN)C(N)=O)cn1c23`, the Activity (Escherichia coli [1]) was “Active”, the MIC (Pseudomonas aeruginosa [2]) was 0.063 µg/mL and the Activity (Pseudomonas aeruginosa [3]) was “Active”. For the same molecule, the Activity (Pseudomonas aeruginosa [4]) was “Active”, the Activity (Escherichia coli [5]) was “Active” and the Ratio (Pseudomonas aeruginosa [6]) was 4. The Activity (Pseudomonas aeruginosa [7]) was “Active”, the Activity (Escherichia coli [8]) was “Active” and the Activity (Pseudomonas aeruginosa [9]) was “Active”. For the same molecule, the Activity (Pseudomonas aeruginosa [10]) was “Active”, the “fractional inhibitory concentration index (FICI)” value (Acinetobacter baumannii [11]) was 0.37 and the Activity (Pseudomonas aeruginosa [12]) was “Active”. The MIC (Pseudomonas aeruginosa [13]) was greater than 128 µg/mL, the Activity (Escherichia coli [14]) was “Active” and the Activity (Escherichia coli [15]) was “Active”. For the same molecule, the Activity (Pseudomonas aeruginosa [16]) was “Active”, the Activity (Escherichia coli [17]) was “Active” and the “fractional inhibitory concentration index (FICI)” value (Pseudomonas aeruginosa [18]) was 0.5. For the same molecule, the MIC (Staphylococcus aureus [19]) was greater than 128 µg/mL, the Activity (Escherichia coli [20]) was “Active” and the Activity (Pseudomonas aeruginosa [21]) was “Active”. The Activity (Pseudomonas aeruginosa [22]) was “Active”, the Activity (Pseudomonas aeruginosa [23]) was “Active” and the MIC (Staphylococcus aureus [24]) was 128 µg/mL (≈ 169 µM). The Activity (Pseudomonas aeruginosa [25]) was “Active”, the hemolysis at 1 h, 512 ug/ml [26] was less than 1% and the Activity (Pseudomonas aeruginosa [27]) was “Active”. For the same molecule, the Ratio (Pseudomonas aeruginosa [28]) was 4, the MIC (Pseudomonas aeruginosa [29]) was 0.25 µg/mL and the MIC (Enterobacter cloacae) was 128 µg/mL (≈ 169 µM). The MIC [30] was greater than 128 µg/mL, the MIC (Enterococcus faecalis) was greater than 128 µg/mL and the MIC (Klebsiella pneumoniae [31]) was greater than 128 µg/mL. For the same molecule, the “fractional inhibitory concentration index (FICI)” value (Acinetobacter baumannii [32]) was 0.37, the “fractional inhibitory concentration index (FICI)” value (Pseudomonas aeruginosa [33]) was 0.313 and the Activity (Klebsiella pneumoniae [34]) was “Active”. The Activity (Pseudomonas aeruginosa [35]) was “Active”.
